From patent US20260256751A1, “COMBINATION OF BETA-2-ADRENERGIC RECEPTOR AGONISTS AND GLP-1 RECEPTOR AGONISTS FOR USE IN TREATING HYPERGLYCAEMIA” (ATROGI AB, priority 2023, published 2026)

Tests used:
[1] = test system: differentiated L6-myotubes; test: Glucose uptake screen (Biological example 1 of WO 2019/053427); assay type: cell-based; conditions: compound at 10 μM, activity relative to isoproterenol at 10 μM, read-out: Biological example 1 of WO 2019/053427 (GU)
Outline: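 Rat L6 myoblasts were differentiated into myotubes over 7 days in 2% FBS, then serum-starved overnight. Cells were stimulated with 1×10^−5 M compound plus β2 antagonist ICI-118551 for 1 h 40 min and re-dosed for 20 min in glucose-free medium. Uptake of 50 nM ^3H-2-deoxyglucose over 10 min was counted after NaOH lysis.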

[2] = test system: differentiated L6-myotubes; test: cAMP production relative to isoprenaline (Biological example 2 of WO 2019/053427); assay type: cell-based; conditions: 0.25 h, compound at 10 μM, activity relative to isoproterenol at 10 μM
Outline: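 Differentiated L6 myotubes stimulated 15 min with test compound or isoprenaline, each at final 1×10^−5 M, in HBSS with 1% BSA, 5 mM HEPES, 1 mM IBMX, pH 7.4. cAMP production by the compound expressed relative to that induced by the same concentration of isoprenaline.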

**Q.** With `CC(=O)N[C@H]1CC[C@H](CC(C)(C)NC[C@H](O)c2cccc(C#N)n2)CC1` [Compound 425, N-[(1S,4r)-4-{2-[(S)-2-(6-cyano-2-pyridyl)-2-hydroxyethylamino]-2-methylpropyl}cyclohexyl]acetamide] as the compound, how does the Emax at 10 µM [1] read?
**A.** > 75%

**Q.** And the Emax at 10 µM [2]?
**A.** 25 to 50%

**Q.** What does the source list for `CO[C@H]1CC[C@@H](CCCNC[C@H](O)c2cncc(F)c2)CC1` [Compound 260, (R)-1-(5-fluoro-3-pyridyl)-2-{3-[(1s,4R)-4-methoxycyclohexyl]propyl-amino}-1-ethanol]?
**A.** Emax at 10 µM [1]: > 75%; Emax at 10 µM [2]: < 25%

**Q.** For `COc1ccc(C[C@@]2(C)CC[C@H]([C@H](O)c3cccc(F)c3)N2)cc1` [Compound 366, (R)-{(2R,5R)-5-[(p-methoxyphenyl)methyl]-5-methyl-2-pyrrolidinyl}(m-fluorophenyl)methanol], which Emax at 10 µM [1] is on record?
**A.** > 75%

**Q.** What about the Emax at 10 µM [2] of the same compound?
**A.** 25 to 50%

**Q.** For `COC(=O)[C@H]1CC[C@H](CCC(C)(C)NC[C@H](O)c2cccc(F)c2)CC1` [Compound 350, methyl (1R,4r)-4-{3-[(R)-2-(m-fluorophenyl)-2-hydroxyethylamino]-3-methylbutyl}cyclohexanecarobxylate], which Emax at 10 µM [1] is on record?
**A.** > 75%

**Q.** And the Emax at 10 µM [2]?
**A.** < 25%

**Q.** With `CC1(C)CC[C@H]([C@@H](O)c2cc(F)c(N)c(F)c2)N1` [Compound 236, (S)-[(R)-5,5-dimethyl-2-pyrrolidinyl](4-amino-3,5-difluorophenyl)methanol] as the compound, how does the Emax at 10 µM [1] read?
**A.** > 75%

**Q.** What about the Emax at 10 µM [2] of the same compound?
**A.** 25 to 50%

**Q.** With `COCC12CCC([C@@H](O)c3cccc(F)c3)(CC1)N2` [Compound 329, (S)-(m-fluorophenyl){4-(methoxymethyl)-7-azabicyclo[2.2.1]hept-1-yl}methanol] as the compound, how does the Emax at 10 µM [1] read?
**A.** 25 to 50%

**Q.** What about the Emax at 10 µM [2] of the same compound?
**A.** < 25%

**Q.** What does the source list for `CCCCNCC(O)c1cc[nH]c(=O)c1` (centres unmarked) [Compound 62, 4-[2-(butylamino)-1-hydroyxethyl]-2(1H)-pyridinone]?
**A.** Emax at 10 µM [1]: 25 to 50%; Emax at 10 µM [2]: < 25%

**Q.** With `COc1ccc(CC23CCC([C@@H](O)c4cccc(F)c4)(CC2)N3)cc1` [Compound 400, (S)-(m-fluorophenyl)(4-[(p-methoxyphenyl)methyl]-7-azabicyclo[2.2.1]hept-1-yl}methanol] as the compound, how does the Emax at 10 µM [1] read?
**A.** 50 to 75%

**Q.** And the Emax at 10 µM [2]?
**A.** < 25%

**Q.** Which results are given for `O[C@@H](c1cccc(F)c1)C12CCC(CCCc3ccccc3)(CC1)N2` [Compound 535, (S)-(m-fluorophenyl){4-(3-phenylpropyl)-7-azabicyclo[2.2.1]hept-1-yl}methanol]?
**A.** Emax at 10 µM [1]: 25 to 50%; Emax at 10 µM [2]: < 25%

**Q.** How did the Emax at 10 µM [1] turn out when `CCC[C@@H]1CCC[C@@H]([C@@H](O)c2cccc(O)c2)N1` [Compound 113, (S)-[(2S,6R)-6-propyl-2-piperidyl](m-hydroxyphenyl)methanol] was run?
**A.** 50 to 75%

**Q.** And the Emax at 10 µM [2]?
**A.** < 25%

**Q.** Which results are given for `O[C@@H](c1cccc(F)c1)[C@H]1CC[C@H](Cc2ccc(Cl)cc2)N1` [Compound 394, (S)-{(2R,5R)-5-[(p-chlorophenyl)methyl]-2-pyrrolidinyl}(m-fluorophenyl)methanol]?
**A.** Emax at 10 µM [1]: 50 to 75%; Emax at 10 µM [2]: < 25%

**Q.** Which Emax at 10 µM [1] does the source give for `CO[C@H]1CC[C@H](CNC[C@H](O)c2cncc(F)c2)CC1` [Compound 229, (R)-1-(5-fluoro-3-pyridyl)-2-({[(1r,4R)-4-methoxycyclohexyl]meth-yl}amino)-1-ethanol] here?
**A.** 50 to 75%

**Q.** What about the Emax at 10 µM [2] of the same compound?
**A.** < 25%

**Q.** What does the source list for `O=C(N[C@H]1CC[C@@H](CNC[C@H](O)c2cccc(F)c2)CC1)c1ccccc1` [Compound 316, N-[(1S,4s)-4-{[(R)-2-(m-fluorophenyl)-2-hydroxyethylamino]methyl}cyclohexyl]benzamide]?
**A.** Emax at 10 µM [1]: 50 to 75%; Emax at 10 µM [2]: < 25%

**Q.** Which results are given for `CCOC(=O)CO[C@H]1CC[C@@H](C(C)(C)NC[C@H](O)c2cccc(F)c2)CC1` [Compound 407, ethyl [(1S,4s)-4-{1-[(R)-2-(m-fluorophenyl)-2-hydroxyethylamino]-1-methylethyl}cyclohexyloxy]acetate]?
**A.** Emax at 10 µM [1]: 50 to 75%; Emax at 10 µM [2]: < 25%

**Q.** How did the Emax at 10 µM [1] turn out when `CCCS(=O)(=O)N[C@H]1CC[C@@H](CC(C)(C)NC[C@H](O)c2cccc(F)c2)CC1` [Compound 497, (R)-2-{1,1-dimethyl-2-[(1s,4S)-4-(propylsulfonylamino)cyclohexyl]ethylamino}-1-(m-fluorophenyl)-1-ethanol] was run?
**A.** 50 to 75%

**Q.** And the Emax at 10 µM [2]?
**A.** < 25%

**Q.** With `O[C@@H](CNCC[C@H]1CC[C@H](OCc2ccccc2)CC1)c1cccc(F)c1` [Compound 288, (R)-1-(m-fluorophenyl)-2-{2-[(1r,4R)-4-(benzyloxy)cyclohexyl]eth-ylamino}-1-ethanol] as the compound, how does the Emax at 10 µM [1] read?
**A.** 25 to 50%

**Q.** And the Emax at 10 µM [2]?
**A.** < 25%

**Q.** What does the source list for `O[C@@H](c1cccc(F)c1)C12CCC(CCc3ccc(Cl)cc3)(CC1)N2` [Compound 527, (S)-{4-[2-(p-chlorophenyl)ethyl]-7-azabicyclo[2.2.1]hept-1-yl}(m-fluorophenyl)methanol]?
**A.** Emax at 10 µM [1]: < 25%; Emax at 10 µM [2]: < 25%

**Q.** `O[C@H](c1cncc(F)c1)C12CCC(CCc3ccc(OC(F)(F)F)cc3)(CC1)N2` [Compound 545, (R)-(5-fluoro-3-pryidyl){4-[2-(p-trifluoromethoxyphenyl)ethyl]-7-azabicyclo[2.2.1]hept-1-yl}methanol] was tested. Which Emax at 10 µM [1] did it give?
**A.** < 25%

**Q.** And the Emax at 10 µM [2]?
**A.** < 25%

**Q.** For `CC1(C)CC[C@H]([C@@H](O)c2cccc(F)c2)N1` [Compound 109, (S)-[(R)-5,5-dimethyl-2-pyrrolidinyl](m-fluorophenyl)methanol], which Emax at 10 µM [1] is on record?
**A.** 25 to 50%

**Q.** And the Emax at 10 µM [2]?
**A.** < 25%

**Q.** Which Emax at 10 µM [1] does the source give for `CO[C@H]1CC[C@H](CCC(C)(C)NC[C@H](O)c2cccc(F)c2)CC1` [Compound 265, (R)-2-{1,1-dimethyl-3-[(1r,4S)-4-methoxycyclohexyl]propyl-amino}-1-(m-fluorophenyl)-1-ethanol] here?
**A.** 50 to 75%

**Q.** What about the Emax at 10 µM [2] of the same compound?
**A.** < 25%

**Q.** Which Emax at 10 µM [1] does the source give for `O[C@H](c1cccc(F)c1)C12CCC(COCc3ccc(Cl)cc3)(CC1)N2` [Compound 396, (R)-(4-{[(p-chlorophenyl)methoxy]methyl}-7-azabicyclo[2.2.1]hept-1-yl)(m-fluorophenyl)methanol] here?
**A.** > 75%

**Q.** And the Emax at 10 µM [2]?
**A.** < 25%

**Q.** What does the source list for `CO[C@H]1CC[C@@H](CCC(C)(C)NC[C@H](O)c2cccc(F)c2)CC1` [Compound 264, (R)-2-{1,1-dimethyl-3-[(1s,R)-4-methoxycyclohexyl]propyl-amino}-1-(m-fluorophenyl)-1-ethanol]?
**A.** Emax at 10 µM [1]: > 75%; Emax at 10 µM [2]: 25 to 50%

**Q.** Which results are given for `O[C@H](c1cccc(F)c1)[C@H]1CCC2(CC2)N1` [Compound 170, (R)-{(R)-4-aza-5-spiro[2.4]heptyl}(m-fluorophenyl)methanol]?
**A.** Emax at 10 µM [1]: 50 to 75%; Emax at 10 µM [2]: < 25%

**Q.** Which Emax at 10 µM [1] does the source give for `CN(C)C(=O)N[C@H]1CC[C@@H](CC(C)(C)NC[C@H](O)c2cccc(F)c2)CC1` [Compound 457, (R)-2-{1,1-dimethyl-2-[(1s,4S)-4-(3,3-dimethylureido)cyclohexyl]ethylamino}-1-(m-fluorophenyl)-1-ethanol] here?
**A.** > 75%

**Q.** And the Emax at 10 µM [2]?
**A.** 25 to 50%

**Q.** For `CC(C)(C[C@H]1CC[C@H](NC(=O)C(C)(C)C)CC1)NC[C@H](O)c1cccc(F)c1` [Compound 429, N-[(1R,4r)-4-{2-[(R)-2-(m-fluorophenyl)-2-hdyroxyethylamino]-2-methylpropyl}cyclohexyl]2,2-dimethylpropionamide], which Emax at 10 µM [1] is on record?
**A.** > 75%

**Q.** And the Emax at 10 µM [2]?
**A.** 25 to 50%

**Q.** For `CC(C)(CC[C@H]1CC[C@H](O)CC1)NC[C@H](O)c1cccc(F)c1` [Compound 290, (R)-2-{1,1-dimethyl-3-[(1r,4S)-4-hydroxycyclohexyl]propyl-amino}-1-(m-fluorophenyl)-1-ethanol], which Emax at 10 µM [1] is on record?
**A.** 25 to 50%

**Q.** And the Emax at 10 µM [2]?
**A.** < 25%

**Q.** With `O=C(N[C@H]1CC[C@H](CNC[C@H](O)c2cccc(F)c2)CC1)c1ccccc1` [Compound 315, N-[(1R,4r)-4-{[(R)-2-(m-fluorophenyl)-2-hydroxyethylamino]methyl}cyclohexyl]benzamide] as the compound, how does the Emax at 10 µM [1] read?
**A.** > 75%

**Q.** What about the Emax at 10 µM [2] of the same compound?
**A.** < 25%

**Q.** `CCCC(C)NCC(O)c1ccc(O)c(Cl)c1` (centres unmarked) [Compound 19, 1-(3-chloro-4-hydroxyphenyl)-2-(1-methylbutylamino)-1-ethanol] was tested. Which Emax at 10 µM [1] did it give?
**A.** 25 to 50%

**Q.** What about the Emax at 10 µM [2] of the same compound?
**A.** < 25%

**Q.** Which Emax at 10 µM [1] does the source give for `CC(C)(C[C@H]1CC[C@H](N)CC1)NC[C@H](O)c1cncc(F)c1` [Compound 359, (R)-2-{1,1-dimethyl-2-[(1r,4R)-4-aminocyclohexyl]ethylamino}-1-(5-fluoro-3-pyridyl)-1-ethanol] here?
**A.** > 75%

**Q.** And the Emax at 10 µM [2]?
**A.** < 25%

**Q.** Which Emax at 10 µM [1] does the source give for `CC1(C)CCC[C@H]([C@H](O)c2cccc(O)c2)N1` [Compound 104, (R)-[(R)-6,6-dimethyl-2-piperidyl](m-hydroxyphenyl)methanol] here?
**A.** 25 to 50%

**Q.** What about the Emax at 10 µM [2] of the same compound?
**A.** < 25%

**Q.** With `CC(C)(NC[C@H](O)c1cccc(F)c1)[C@H]1CC[C@H](OCC(=O)O)CC1` [Compound 402, [(1R,r)-4-{1-[(R)-2-(m-fluorophenyl)-2-hydroxyethylamino]-1-methylethyl}cyclohexyloxy]acetic acid] as the compound, how does the Emax at 10 µM [1] read?
**A.** 50 to 75%

**Q.** And the Emax at 10 µM [2]?
**A.** < 25%

**Q.** How did the Emax at 10 µM [1] turn out when `CC(C)(NC[C@H](O)c1cccc(F)c1)[C@H]1CC[C@H](C(=O)O)CC1` [Compound 368, (1R,4r)-8-[(R)-2-(m-fluorophenyl)-2-hydroxyethylamino]-7-hydroxy-p-menthan-7-one] was run?
**A.** 25 to 50%

**Q.** And the Emax at 10 µM [2]?
**A.** < 25%

**Q.** `Oc1ccc(C(O)CNC23CC4CC(CC(C4)C2)C3)cc1` (centres unmarked) [Compound 11, p-[2-(1-adamantanylamino)-1-hydroxyethyl]phenol] was tested. Which Emax at 10 µM [1] did it give?
**A.** 25 to 50%

**Q.** And the Emax at 10 µM [2]?
**A.** < 25%

**Q.** Which results are given for `O[C@@H](c1cncc(F)c1)[C@H]1CC[C@H](Cc2ccc(Cl)cc2)N1` [Compound 405, (S)-{(2R,5R)-5-[(p-chlorophenyl)methyl]-2-pyrrolidinyl}(5-fluoro-3-pyridyl)methanol]?
**A.** Emax at 10 µM [1]: > 75%; Emax at 10 µM [2]: < 25%
